Source: patent US20180186769A1, “6-AMINO-5-FLUORO-5-(FLUOROMETHYL)-2,3,4,5-TETRAHYDROPYRIDIN-2-YL-PHENYL-5-(METHOXY-D3)-PYRAZINE-2-CARBOXAMIDES AND FLUORINATED DERIVATIVES THEREOF AS BACE1 INHIBITORS” (H. Lundbeck A/S, priority 2016, published 2018)

Key:
[1] = Clearance in microsomes, cyno; assay type: in vitro ADME; settings: cynomolgus monkey, read-out: CLint, Cyno (L/h/kg) ± SD (converted)
Excerpt: (§1) Deuterated compounds were compared to their non-deuterated parent counterparts to determine the impact of deuteration on clearance results

[2] = Clearance in hepatocytes, rat; assay type: in vitro ADME; settings: read-out: CLint, Rat (L/h/kg) ± SD (converted)
Excerpt: as §1

[3] = Clearance in microsomes, human; assay type: in vitro ADME; settings: read-out: CLint, Human (L/h/kg) ± SD (converted)
Excerpt: as §1

[4] = Clearance in hepatocytes, human; assay type: in vitro ADME; settings: read-out: CLint, Human (L/h/kg) ± SD (converted)
Excerpt: as §1

[5] = Clearance in microsomes, dog; assay type: in vitro ADME; settings: read-out: CLint, Dog (L/h/kg) ± SD (converted)
Excerpt: as §1

[6] = Clearance in hepatocytes, dog; assay type: in vitro ADME; settings: read-out: CLint, Dog (L/h/kg) ± SD (converted)
Excerpt: as §1

[7] = Clearance in hepatocytes, cyno; assay type: in vitro ADME; settings: cynomolgus monkey, read-out: CLint, Cyno (L/h/kg) ± SD (converted)
Excerpt: as §1

[8] = Clearance in microsomes, rat; assay type: in vitro ADME; settings: read-out: CLint, Rat (L/h/kg) ± SD (converted)
Excerpt: as §1

BACE1 [9] = target: T1, BACE1 (Homo sapiens, UniProt P56817); assay: BACE1 efficacy assay (FRET-based); assay type: biochemical; set-up: purchased Life Technologies P2985; settings: 10 μM test compound
Experimental: The efficacy assay was performed as a FRET-based assay using a commercially available BACE1 kit (Life Technologies, P2985). 2 μl test compound at 10 μM (final concentration) and 15 μl BACE1 enzyme from the kit (final concentration 3 nM) were preincubated for 15 minutes at room temperature before addition of 15 μl of substrate from the kit (250 nM final concentration) and incubated for additional 90 minutes at room temperature. The assay plate was subsequently read in a Pherastar (Ex540/Em590). The enzyme activity observed in presence of test compound were normalized to the enzyme activity observed in presence of buffer and 10 μM (final concentration) of the high affinity BACE1 reference inhibitor (S)-6-[3-Chloro-5-(5-prop-1-ynyl-pyridin-3-yl)-thiophen-2-yl]-2-imino-3,6-dimethyl-tetrahydropyrimidin-4-one, respectively. The efficacy of the test compounds was evaluated at 10 μM (final concentration) and defined as the percent inhibition of the enzyme activity using the equation % inhibition=100%−normalized enzyme activity in percent.

P-gp (MDR1) = assay: MDCK-MDR1 assay (permeability, efflux ratio); assay type: in vitro ADME; settings: dog, Papp BA/Papp AB
Experimental: The permeability of the test compounds was assessed in MDCK-MDR1 cells that were cultured to confluency (4-6 days) in a 96 transwell plate. Test compounds were diluted with the transport buffer (HBSS+1% BSA) to a concentration of 0.5 μM and applied to the apical or basolateral side of the cell monolayer. Permeation of the test compounds from A to B direction or B to A direction was determined in triplicate over a 60-minute incubation time at 37° C. and 5% CO2 with a relative humidity of 95%. Test compounds were quantified by LC-MS/MS analysis based on the peaks area ratios of analyte/IS in both the receiver and donor wells of the transwell plate.
The apparent permeability coefficient Papp (cm/s) was calculated using the equation: […]
Where dCr/dt is the cumulative concentration of compound in the receiver chamber as a function of time (μM/s); Vr is the solution volume in the receiver chamber (0.05 mL on the apical side; 0.25 mL on the basolateral side); A is the surface area for the transport, i.e. 0.0804 cm^2 for the area of the monolayer; CO is the initial concentration in the donor chamber (μM).
Compounds are classified Pgp substrates when efflux ratio (Papp BA/Papp AB) is ≥2.

BACE1 [10] = target: T1, BACE1; assay: BACE1 binding assay (SPA-based); set-up: biotin (biotinylated form); made in house; host or cells: Freestyle HEK293 cells; settings: pH 4.5, 10 nM radioligand
Experimental: The binding assay was performed as SPA-based assay using a biotinylated form of human BACE1 recombinantly expressed and subsequently purified from Freestyle HEK293 cells. The binding assay was run in a 50 mM sodium acetate buffer, pH 4.5 containing 50 mM NaCl and 0.03% Tween-20 in white clear bottom 384 plates (Corning #3653). […] The plates were incubated for one hour at room temperature and counted in a Wallac Trilux counter. Total and non-specific binding were determined using buffer and 1 μM (final concentration) of the high affinity BACE1 reference inhibitor (S)-6-[3-chloro-5-(5-prop-1-ynyl-pyridin-3-yl)-thiophen-2-yl]-2-imino-3,6-dimethyl-tetrahydro-pyrimidin-4-one, respectively. For each test compound, a IC50 value (the concentration mediating 50% inhibition of the specific binding of the radioligand) was determined from concentration-response curve and used to calculate the Ki from the equation Ki=IC50/(1+L/Kd), where L and Kd are the final concentration of the radioligand used in the assay and the dissociation constant of the radioligand, respectively. The Kd of the radioligand was determined from saturation binding experiments.

T1 sequence (P56817 46-501): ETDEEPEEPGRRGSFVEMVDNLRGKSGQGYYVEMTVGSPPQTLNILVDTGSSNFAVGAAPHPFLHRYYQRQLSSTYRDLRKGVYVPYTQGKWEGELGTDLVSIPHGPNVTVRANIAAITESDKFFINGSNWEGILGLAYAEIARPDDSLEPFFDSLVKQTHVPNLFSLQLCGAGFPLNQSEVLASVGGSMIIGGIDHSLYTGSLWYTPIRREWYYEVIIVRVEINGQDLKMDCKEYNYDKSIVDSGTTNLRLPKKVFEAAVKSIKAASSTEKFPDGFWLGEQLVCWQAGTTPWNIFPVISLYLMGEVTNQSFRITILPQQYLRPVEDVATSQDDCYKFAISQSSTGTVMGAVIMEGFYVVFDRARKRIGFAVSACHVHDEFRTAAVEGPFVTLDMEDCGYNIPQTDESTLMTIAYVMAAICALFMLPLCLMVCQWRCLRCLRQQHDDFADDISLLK

Row | CLint scaled at 1 µM [1] | CLint scaled at 0.1 µM [2] | CLint scaled at 0.3 µM [2] | CLint scaled at 1 µM [2] | CLint scaled at 1 µM [3] | CLint scaled at 0.1 µM [4] | CLint scaled at 0.3 µM [4] | CLint scaled at 1 µM [4] | CLint scaled at 1 µM [5] | CLint scaled at 0.1 µM [6] | CLint scaled at 0.3 µM [6] | CLint scaled at 1 µM [6] | CLint scaled at 0.1 µM [7] | CLint scaled at 0.3 µM [7] | CLint scaled at 1 µM [7] | CLint scaled at 1 µM [8] | inhibition at 10 µM (BACE1 [9]) | efflux ratio at 60 min, 0.5 μM (P-gp (MDR1)) | Ki (BACE1 [10]) | also measured | SMILES
1 | 34 L/h/kg | 1.7 L/h/kg | 1.5 L/h/kg | 1 L/h/kg | 0.51 L/h/kg | 1 L/h/kg | 0.95 L/h/kg | 0.72 L/h/kg | 25 L/h/kg | 112 L/h/kg | 101 L/h/kg | 64 L/h/kg | 137 L/h/kg | 135 L/h/kg | 75 L/h/kg | 1.3 L/h/kg |  |  |  | CLint scaled at 0.1 µM ([1]; 0.1 microM): 70 L/h/kg; CLint scaled at 0.3 µM ([1]; 0.3 microM): 61 L/h/kg; CLint scaled at 0.1 µM ([3]; 0.1 microM): 1 L/h/kg; CLint scaled at 0.3 µM ([3]; 0.3 microM): 0.75 L/h/kg; CLint scaled at 0.1 µM ([5]; 0.1 microM): 40 L/h/kg; CLint scaled at 0.3 µM ([5]; 0.3 microM): 31 L/h/kg; CLint scaled at 0.1 µM ([8]; 0.1 microM): 2.7 L/h/kg; CLint scaled at 0.3 µM ([8]; 0.3 microM): 1.8 L/h/kg | COc1cnc(C(=O)Nc2ccc(F)c([C@]3(C)CC[C@@](F)(CF)C(N)=N3)c2)cn1 [Compound Z]
2 | 12 L/h/kg | 1.4 L/h/kg | 1 L/h/kg | 2.1 L/h/kg | 0.5 L/h/kg | < 0.1 L/h/kg | < 0.1 L/h/kg | 0.29 L/h/kg | 21 L/h/kg | 98 L/h/kg | 84 L/h/kg | 57 L/h/kg | 80 L/h/kg | 32 L/h/kg | 14 L/h/kg | 1 L/h/kg |  |  |  |  | [2H]C([2H])([2H])Oc1ccc(C(=O)Nc2ccc(F)c([C@@]3(C(F)F)N=C(N)CCC3(F)F)c2)nc1 [Compound Y]
3 |  |  |  |  |  |  |  |  |  |  |  |  |  |  |  |  | 100% | 0.77 | 9.8 nM |  | [2H]C([2H])([2H])Oc1cnc(C(=O)Nc2cc(F)c(F)c([C@]3(C)CC[C@@](F)(CF)C(N)=N3)c2)cn1 [Example 5, N-[3-[(2S,5S)-6-amino-5-fluoro-5-(fluoromethyl)-2-methyl-2,3,4,5-tetrahydropyridin-2-yl]-4,5-difluoro-phenyl]-5-(methoxy-d3)pyrazine-2-carboxamide]
4 |  |  |  |  |  |  |  |  |  |  |  |  |  |  |  |  | 99% | 0.96 | 84 nM |  | [2H]C([2H])([2H])Oc1cnc(C(=O)Nc2cc(F)c(F)c([C@]3(C)CC[C@](F)(CF)C(N)=N3)c2)cn1 [Example 2, N-[3-[(2S,5R)-6-amino-5-fluoro-5-(fluoromethyl)-2-methyl-2,3,4,5-tetrahydropyridin-2-yl]-4,5-difluoro-phenyl]-5-(methoxy-d3)pyrazine-2-carboxamide]
5 |  |  |  |  |  |  |  |  |  |  |  |  |  |  |  |  | 97% | 0.85 | 67 nM |  | [2H]C([2H])([2H])Oc1cnc(C(=O)Nc2ccc(F)c([C@]3(CF)CC[C@](F)(CF)C(N)=N3)c2)cn1 [Example 3, N-[3-[(2S,5R)-6-amino-5-fluoro-2,5-bis(fluoromethyl)-2,3,4,5-tetrahydropyridin-2-yl]-4-fluoro-phenyl]-5-(methoxy-d3)pyrazine-2-carboxamide]
6 |  |  |  |  |  |  |  |  |  |  |  |  |  |  |  |  | 97% | 0.73 | 14 nM |  | [2H]C([2H])([2H])Oc1cnc(C(=O)Nc2ccc(F)c([C@]3(CF)CC[C@@](F)(CF)C(N)=N3)c2)cn1 [Example 4, N-[3-[(2S,5S)-6-amino-5-fluoro-2,5-bis(fluoromethyl)-2,3,4,5-tetrahydropyridin-2-yl]-4-fluoro-phenyl]-5-(methoxy-d3)pyrazine-2-carboxamide]
